Laboratory results from patent US20230201217A1 (priority 2019, published 2023).
Where “and” joins values, the source holds several entries; their conditions need not be identical. Equal entries are not always repeated. Entries after “also recorded” stand apart in the source; their conditions may differ.

Legend:
[1] = system: male Sprague-Dawley rats; test: Intracranial self-stimulation (ICSS), frequency-rate procedure
[2] = system: Sprague Dawley rats; test: Modified Irwin test, pilot dose finding study, female rats; type: in vivo, rat; details: single oral dose 30-800 mg/kg
Method: Under the conditions of this study, the no-observed-effect level (NOEL) and no-observed-adverse-effect level (NOAEL) were considered to be 90 mg/kg and 400 mg/kg, respectively.

[3] = system: male CD-1 mice; test: Cardiovascular radiotelemetry in conscious CD-1 mice; type: in vivo, mouse
Description: The purpose of this study was to explore the physiological changes associated with mortality. Animals were implanted with a radiotelemetry transmitter in the peritoneal cavity with the catheter inserted in the femoral artery and the sensor tip positioned in the abdominal aorta. […] Within one hour of dosing, average heart rate (FIG. 14) decreased about 50%, and significant decreases in systolic (FIG. 15) and diastolic blood pressure (FIG. 16). In addition, body temperature generally dropped at each collection time point, reaching a maximum difference from baseline at 120 minutes post-dose (average change up to 6.5° C.). Following administration of the 200 mg/kg dose, body temperature continued to drop (up to 10.5° C.) until all mice died (˜12 hours post-dose). These changes in body temperature were considered test article-related and correlated to the observed changes in heart rate. Terminally, there was a further decrease in all of the parameters, with the rectal temperatures falling to as low as 22° C. before the mice died. Observed effects on behavior and activity included tremors, twitches, abnormal gait, lethargy, decreased motor activity, increased response to touch and startle, seizures, gasping and slow respirations, exophthalmia, and stupor.

[4] = system: rats; test: Single-dose oral toxicity; type: in vivo, rat
Method: (§1) Single doses up to 300-400 mg/kg and 800 mg/kg appeared to be generally well tolerated in monkeys and rats, respectively (one monkey treated with 400 mg/kg died in the 2-week GLP study on Day 1 of dosing). […] In mice, mortality was consistently seen following single doses 150 mg/kg. Preliminary 5-day repeat-dose range-finding studies were conducted in mice, rats and monkeys. The definitive 14-day studies in mouse and monkey yielded generally similar results to those observed in the 5-day studies.

[5] = system: dopamine release in the nucleus accumbens shell; details: 40 mg/kg pretreatment, 19 hours beforehand; cited from earlier work
[6] = system: rats, cocaine seeking behavior; details: 40 mg/kg i.p.; cited from earlier work
[7] = system: rats trained to self-administer cocaine; test: Rat cocaine self-administration, oral 18-MC HCl; details: for inhibition of cocaine self-administration: 1 hour post-dose
Method: The relationship between in vivo efficacy and plasma drug exposure was investigated in rats trained to self-administer cocaine. […] Blood samples were collected immediately after the one hour session in the operant chamber from the arterial catheter. […] Significant differences from vehicle-treated animals were either p<0.01 (indicated as **) or p<0.05 (indicated as *).
Significant difference from vehicle-treated group (0 mg/kg on X axis) was p<0.01 (indicated as **) by one-way ANOVA.
Significant difference from baseline responding was p<0.01 (as indicated by **). […] Blood samples were collected from animals immediately after their cocaine self-administration at approximately 2 hours post dose in the first day of dosing (Day 0), and the last day of dosing (Day 4).

[8] = system: monkeys; test: Single-dose oral toxicity; type: in vivo, monkey
Method: as §1

[9] = system: mice; test: Single-dose oral toxicity; type: in vivo, mouse
Method: as §1

[10] = system: male Sprague Dawley rats; test: Modified Irwin test, definitive GLP study, male rats; type: in vivo, rat
Method: Only male rats were utilized in the assay, as no significant sex-specific effects have been noted in prior toxicology studies.
The dose volume for all groups was 20 mL/kg. Observations for the Irwin test were performed pre-dose (on the day of dosing) and at approximately (±5 minutes) 30, 90, 150, and 240 minutes post-dosing. Body temperature was measured and recorded during each Irwin observation period.

[11] = Pharmacokinetics in rats; type: in vivo, rat
Method: 18-MC is rapidly absorbed and distributed into the brain and fat tissues in rats dosed with 40 mg/kg p.o. or i.p. The estimated volume of distribution is 8 L/kg. 18-MC levels in fat were 4.2 μM and 2.5 μM at 2 hours and 24 hours, respectively. […] On oral administration, it appears that the major metabolites are either M4 or M5, depending on the animal species tested. M4 and M5 are the primary circulating drug species because they are present at proportions greater than 18-MC. […] In the animal species tested its half-life is less than 2 hours at lower doses. At high doses a long elimination phase is evident (ranging from 9 to 20 hours in rats). 18-MC is highly protein bound (95-98%).

[12] = molecular target: CYP1A2 (Homo sapiens, UniProt P05177); details: recombinant enzyme
CYP1A2, sequence (P05177 whole entry): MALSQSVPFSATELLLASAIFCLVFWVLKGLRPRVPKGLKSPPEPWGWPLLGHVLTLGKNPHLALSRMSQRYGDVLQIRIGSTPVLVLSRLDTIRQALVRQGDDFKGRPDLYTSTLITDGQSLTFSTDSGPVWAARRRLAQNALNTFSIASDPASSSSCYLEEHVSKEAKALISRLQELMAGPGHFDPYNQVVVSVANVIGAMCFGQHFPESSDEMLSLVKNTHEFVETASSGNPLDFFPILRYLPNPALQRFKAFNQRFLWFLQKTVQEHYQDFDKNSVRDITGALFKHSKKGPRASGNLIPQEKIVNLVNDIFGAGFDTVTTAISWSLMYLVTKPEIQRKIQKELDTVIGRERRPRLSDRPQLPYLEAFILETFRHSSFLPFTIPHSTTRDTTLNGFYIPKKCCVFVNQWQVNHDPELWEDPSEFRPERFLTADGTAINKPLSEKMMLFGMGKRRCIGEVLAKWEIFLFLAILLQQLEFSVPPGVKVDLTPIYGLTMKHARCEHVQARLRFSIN
Method: (§2) Control incubations were performed for each assay with appropriate positive inhibitory controls.

[13] = molecular target: CYP2A6 (Homo sapiens, UniProt P11509); details: recombinant enzyme
CYP2A6, sequence (P11509 whole entry): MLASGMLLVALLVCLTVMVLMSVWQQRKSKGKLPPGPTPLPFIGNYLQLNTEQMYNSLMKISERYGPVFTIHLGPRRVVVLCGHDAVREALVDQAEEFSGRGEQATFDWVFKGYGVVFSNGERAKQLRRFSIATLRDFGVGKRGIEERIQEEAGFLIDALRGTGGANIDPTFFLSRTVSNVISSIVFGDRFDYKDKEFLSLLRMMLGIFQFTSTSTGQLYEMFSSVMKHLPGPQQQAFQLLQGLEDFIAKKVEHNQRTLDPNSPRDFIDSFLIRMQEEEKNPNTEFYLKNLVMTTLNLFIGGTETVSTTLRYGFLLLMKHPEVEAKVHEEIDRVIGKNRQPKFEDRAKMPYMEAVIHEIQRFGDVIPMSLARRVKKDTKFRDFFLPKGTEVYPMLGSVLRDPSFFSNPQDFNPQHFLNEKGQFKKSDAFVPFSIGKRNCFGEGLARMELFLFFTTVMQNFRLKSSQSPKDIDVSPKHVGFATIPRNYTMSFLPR
Method: as §2

[14] = molecular target: CYP2B6 (Homo sapiens, UniProt P20813); details: recombinant enzyme
CYP2B6, sequence (P20813 whole entry): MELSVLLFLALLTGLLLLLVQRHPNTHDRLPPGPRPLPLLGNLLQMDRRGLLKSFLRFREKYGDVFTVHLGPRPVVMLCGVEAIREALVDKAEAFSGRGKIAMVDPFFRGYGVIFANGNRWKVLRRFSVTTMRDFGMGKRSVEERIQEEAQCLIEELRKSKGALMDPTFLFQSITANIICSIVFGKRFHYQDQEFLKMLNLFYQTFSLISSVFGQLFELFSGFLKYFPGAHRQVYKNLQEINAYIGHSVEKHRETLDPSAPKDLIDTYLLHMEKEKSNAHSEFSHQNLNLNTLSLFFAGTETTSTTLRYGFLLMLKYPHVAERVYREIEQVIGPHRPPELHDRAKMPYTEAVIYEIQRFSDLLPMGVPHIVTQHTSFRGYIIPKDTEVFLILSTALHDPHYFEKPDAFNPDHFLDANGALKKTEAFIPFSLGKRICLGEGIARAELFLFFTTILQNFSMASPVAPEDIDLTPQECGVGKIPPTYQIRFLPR
Method: as §2

[15] = system: plasma protein; test: Plasma protein binding; type: in vitro ADME, Mouse
Description: There is no information on the protein binding of any of the metabolites.

Structure (SMILES): COCCC1CC2CN3CCc4c([nH]c5ccccc45)C(C(=O)OC)(C2)C13.Cl (stereo not shown) [18-MC HCl, 18-Methoxycoronaridine hydrochloride]
- M50, Test, mean (SEM) ([1]; 10 mg/kg i.p.): 1.94 (0.02) log/Hz
- Threshold (T0), Test, mean (SEM) ([1]; 10 mg/kg i.p.): 1.80 (0.03) log/Hz
- M50, Test, mean (SEM) ([1]; 40 mg/kg i.p.): 1.95 (0.02) log/Hz
- Threshold (T0), Test, mean (SEM) ([1]; 40 mg/kg i.p.): 1.85 (0.03) log/Hz
- M50, Test, mean (SEM) ([1]; 56 mg/kg i.p.): 1.95 (0.02) log/Hz
- Threshold (T0), Test, mean (SEM) ([1]; 56 mg/kg i.p.): 1.85 (0.02) log/Hz
- effect on ICSS frequency-rate curves, M50 and threshold (T0) ([1]; 10, 40, 56 mg/kg i.p., 45 minutes before test session, hydrochloride): did not affect; also recorded: no main effect
- no-observed-adverse-effect level (NOAEL) [2]: 400 mg/kg
- no-observed-effect level (NOEL) [2]: 90 mg/kg
- average change in body temperature from baseline ([3]; 100 mg/kg, 120 minutes post-dose): up to 6.5 °C
- mortality ([3]; after 100 mg/kg oral dose): Two of the 6 animals died
- mortality ([3]; after the 200 mg/kg dose (8 hours after 100 mg/kg)): all of the other animals died
- rectal temperature, terminal ([3]; before the mice died): ≥ 22 °C
- drop in body temperature ([3]; following the 200 mg/kg dose): up to 10.5 °C
- decrease in average heart rate ([3]; within one hour of dosing): about 50%
- single dose generally well tolerated [4]: ≤ 800 mg/kg
- acute dopamine response to cocaine [5]: little effect
- sensitized dopamine response to cocaine [5]: abolished the sensitized dopamine response
- reinstatement effect of cues associated with cocaine self-administration [6]: blocked the reinstatement effect
- inhibition of cocaine self-administration ([7]; 120 mg/kg p.o.): 50%
- inhibition of cocaine self-administration on repeated dosing ([7]; 600 mg/kg/day, 5 consecutive days): did not result in greater inhibition
- inhibition of cocaine self-administration ([7]; 800 mg/kg p.o.): 82%
- single dose generally well tolerated [8]: 300 to 400 mg/kg
- single doses with mortality consistently seen [9]: 150 mg/kg
- Irwin: Increased pupil diameter, occurrence(s)/No. of males ([10]; 200 mg/kg): 1/6
- Irwin: Increased touch response, occurrence(s)/No. of males ([10]; 200 mg/kg): 1/6
- mean decrease in body temperature from pre-dose ([10]; 200 mg/kg p.o.): up to 1.5 °C
- Irwin: Abnormal gait (walking low on limbs), occurrence(s)/No. of males ([10]; 400 mg/kg): 1/6
- Irwin: Decreased alertness, occurrence(s)/No. of males (observation period, min) ([10]; 400 mg/kg): 1/6
- Irwin: Increased pupil diameter, occurrence(s)/No. of males ([10]; 400 mg/kg): 1/6
- mean decrease in body temperature from pre-dose ([10]; 400 mg/kg p.o.): ≤ 2.3 °C
- Irwin: Abnormal gait (walking low on limbs), occurrence(s)/No. of males ([10]; 600 mg/kg): 1/6
- Irwin: Diarrhea, occurrence(s)/No. of males ([10]; 600 mg/kg): 1/6
- mean decrease in body temperature from pre-dose ([10]; 600 mg/kg p.o.): ≤ 2.3 °C
- Irwin: Abnormal gait (waddling), occurrence(s)/No. of males (observation period, min) ([10]; 600 mg/kg, hydrochloride): 1/6 and 2/6 and 3/6 and 4/6
- oral bioavailability ([11]; 60 mg/kg): about 8%

Structure (SMILES): COCC[C@H]1CC2CN3CCc4c([nH]c5ccccc45)[C@](C(=O)OC)(C2)[C@H]13 [18-MC, 18-methoxycoronaridine]
- no-observed-adverse-effect level (NOAEL) [2]: 400 mg/kg
- no-observed-effect level (NOEL) [2]: 90 mg/kg
- IC50 [12]: > 100 µM
- IC50 [13]: > 100 µM
- IC50 [14]: > 100 µM
- estimated volume of distribution ([11]; 40 mg/kg p.o. or i.p.): 8 L/kg
- oral bioavailability for total drug substance (AUC of 18-MC and its metabolites) ([11]; 60 mg/kg): about 25%
- 18-MC level in fat ([11]; 2 hours): 4.2 µM
- 18-MC level in fat ([11]; 24 hours): 2.5 µM
- % Bound Mean ± SD ([15]; 200 ng/mL): 97.0 ± 0.208%
- % Bound Mean ± SD ([15]; 600 ng/mL): 97.1 ± 0.058%
- % Bound Mean ± SD ([15]; 5,000 ng/mL): 96.5 ± 0.071%
- Average % Bound Mean ± SD ([15]; average of 3 concentrations): 96.9 ± 0.321%
